Here are results for 27 compounds from ChEMBL document CHEMBL1201862, “PubChem BioAssay data set” (2004).

Experiment [1] is described as follows: cells. Type of experiment: functional, cell-based.
Experiment [2] deals with T1, Nuclear receptor subfamily 0 group B member 1 (Homo sapiens, UniProt P51843).
T1 sequence (P51843 whole entry): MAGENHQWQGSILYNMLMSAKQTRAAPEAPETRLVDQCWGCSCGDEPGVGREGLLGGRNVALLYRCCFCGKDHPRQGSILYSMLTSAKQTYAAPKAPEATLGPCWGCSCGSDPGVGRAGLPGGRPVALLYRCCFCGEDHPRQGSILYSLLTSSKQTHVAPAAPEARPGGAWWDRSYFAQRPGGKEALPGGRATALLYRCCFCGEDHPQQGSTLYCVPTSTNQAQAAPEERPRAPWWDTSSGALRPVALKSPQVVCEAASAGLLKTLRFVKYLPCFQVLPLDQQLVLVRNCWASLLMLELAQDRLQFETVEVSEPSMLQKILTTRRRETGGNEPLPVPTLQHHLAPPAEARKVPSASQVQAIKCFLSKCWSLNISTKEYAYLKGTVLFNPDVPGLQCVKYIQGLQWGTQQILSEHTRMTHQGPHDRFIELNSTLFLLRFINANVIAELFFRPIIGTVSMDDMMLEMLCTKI
The class given is functional, cell-based.

For experiment [3], the target named is T2, High affinity choline transporter 1 (Homo sapiens, UniProt Q9GZV3).
T2 sequence (Q9GZV3 whole entry): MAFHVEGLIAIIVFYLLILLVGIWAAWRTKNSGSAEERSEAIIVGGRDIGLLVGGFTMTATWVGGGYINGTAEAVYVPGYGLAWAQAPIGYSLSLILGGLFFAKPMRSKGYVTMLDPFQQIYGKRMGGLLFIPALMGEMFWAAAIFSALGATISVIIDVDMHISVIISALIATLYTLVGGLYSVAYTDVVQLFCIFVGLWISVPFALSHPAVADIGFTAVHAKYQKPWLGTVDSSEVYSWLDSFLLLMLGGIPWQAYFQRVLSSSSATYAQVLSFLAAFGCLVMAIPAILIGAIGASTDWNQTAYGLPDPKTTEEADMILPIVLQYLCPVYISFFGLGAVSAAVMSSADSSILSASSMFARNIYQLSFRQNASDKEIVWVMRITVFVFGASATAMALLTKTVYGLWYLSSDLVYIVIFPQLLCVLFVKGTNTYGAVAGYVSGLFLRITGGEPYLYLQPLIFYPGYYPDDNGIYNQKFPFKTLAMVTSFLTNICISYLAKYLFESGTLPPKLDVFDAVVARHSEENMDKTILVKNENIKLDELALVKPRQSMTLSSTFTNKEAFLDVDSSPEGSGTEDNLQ
The experiment can be described thus: human choline transporter blockers, potency – cell-based, 5-point CRC, membrane potential dye, dose response (AID 504840). The class given is functional.

Experiment [4] deals with P388/ADR. The experiment can be described thus: cells. The note with it: Mus musculus. Type of experiment: functional.
The test system of experiment [5] is P388. The experiment can be described thus: cells. Type of experiment: functional. The note with it: Mus musculus.
Experiment [6] deals with SN12K1. The experiment can be described thus: cells. The class given is functional. The note with it: Homo sapiens.
A short description of experiment [7]: THP-1 cell cytotoxicity, dose response, cytotoxicity control for non-replicating M. tuberculosis project (AID 489025). Type of experiment: functional.
Experiment [8] is described as follows: cells. The class given is functional.
Experiment [9] addresses T3, Calpain-2 catalytic subunit (Sus scrofa, UniProt P43367).
T3 sequence (P43367 whole entry): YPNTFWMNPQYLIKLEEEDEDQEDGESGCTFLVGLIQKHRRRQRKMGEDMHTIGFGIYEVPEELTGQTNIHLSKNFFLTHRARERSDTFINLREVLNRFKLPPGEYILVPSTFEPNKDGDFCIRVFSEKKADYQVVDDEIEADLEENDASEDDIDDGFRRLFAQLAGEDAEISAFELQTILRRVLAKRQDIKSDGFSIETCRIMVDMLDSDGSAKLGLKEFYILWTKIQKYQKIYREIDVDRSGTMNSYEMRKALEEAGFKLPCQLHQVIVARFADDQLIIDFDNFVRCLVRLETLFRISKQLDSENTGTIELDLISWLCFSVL
The experiment can be described thus: m-calpain protease blockers, concentration series – biochemical, fluorogenic peptide substrate, dose response (AID 1420). Type of experiment: functional.

Experiment [10] concerns the target Glucose-6-phosphate 1-dehydrogenase (Homo sapiens, UniProt P11413). The experiment can be described thus: inhibition of Homo sapiens G6PD, dose series – biochemical, fluorescence, selectivity assay for P. falciparum G6PD inhibitor project, dose response (AID 504792). The class given is functional.
Experiment [11] is described as follows: Luminescence Cell-Based Dose Response HTS to Identify Activators of Luciferase Translation or Activity in H4 […] Cells. [Related pubchem assays: 1829 (Project Summary), 1814 (Primary HTS)]. Type of experiment: functional.
Experiment [12] can be described thus: Luminescence Cell-Based Dose Confirmation HTS to Identify Activators of 5'UTR Stem-Loop Driven Alpha-Synuclein mRNA Translation in H4 Neuroglioblastoma Cells. [Related pubchem assays: 1829 (Project Summary), 1814 (Primary HTS)]. The class given is functional.
The test system of experiment [13] is H4. The experiment can be described thus: Luminescence Cell-Based Dose Response HTS to Identify Activators of 5'UTR Stem-Loop Driven Prion Protein mRNA Translation in H4 Neuroglioblastoma Cells. [Related pubchem assays: 1829 (Project Summary), 1814 (Primary HTS)]. The class given is functional. Conditions: Homo sapiens.
In experiment [14] the test system is BJ. The experiment can be described thus: BJ-TERT fibroblast viability loss – cell-based, RAS-independent, luminescence, dose response (AID 1933). The class given is functional. The note with it: Homo sapiens.
For experiment [15], the system named is BJ. The experiment can be described thus: BJ-TERT-LT-ST fibroblast viability loss – cell-based, RAS-independent, luminescence, dose response (AID 1935).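 Further: BJ fibroblasts immortalized with TERT plus LT and ST oncogenes.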 Type of experiment: functional. The note with it: Homo sapiens.
A short description of experiment [16]: HEK-293T viability loss after treatment – luminescence, T-cell screen hits, cytotoxicity control for TCR NF-kB inhibitor project, dose response (AID 489026).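 Further: cells exposed to compound about 14 hours before the viability readout.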 The class given is functional, cell-based.
Experiment [17] deals with BJ. The experiment can be described thus: cells. The class given is functional, cell-based. The note with it: Homo sapiens.
The nature of experiment [18]: DRD fibroblast viability loss – cell-based, non-viral oncogenic, luminescence, dose response (AID 1934). Type of experiment: functional. The note with it: Homo sapiens.
A short description of experiment [19]: Luminescence Cell-Based Dose Response HTS to Identify Inhibitors of 5'UTR Stem-Loop Driven Prion Protein mRNA Translation in H4 Neuroglioblastoma Cells. [Related pubchem assays: 1827 (Project Summary), 1813 (Primary HTS)]. Type of experiment: functional.
Experiment [20] can be described thus: alpha-synuclein stem-loop luciferase translation blockers – H4 neuroglioma cells, luminescence, confirmation (AID 1988). Type of experiment: functional, cell-based.
Experiment [21] in a line: luciferase reporter signal suppression in cells – H4 neuroglioma cells, luminescence, dose response (AID 1990). The class given is functional, cell-based. In general terms: In a reporter assay the amount or activity of a reporter protein is the signal.
Experiment [22] is described as follows: Trypanosoma cruzi growth suppression in host cells – NIH3T3 host cells, beta-gal luminescence, confirmation (AID 2044).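 Further: intracellular parasites grown in NIH/3T3 mouse fibroblasts as host cells; luminescent beta-galactosidase reporter signal from transgenic T. cruzi replicating inside host cells; inhibitors lower the luminescence signal.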 The class given is functional, cell-based.
Experiment [23] in a line: NIH3T3 cell viability loss – ATP luminescence, mouse fibroblasts, counter-screen, dose response (AID 2010).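 Further: cells exposed to compound for about 90 hours before reading.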 Type of experiment: functional, cell-based.

The source made the active and inactive calls. A value given as a limit tells only on which side of the number the result lay.

Chain of Glucose-6-phosphate 1-dehydrogenase (P11413 whole entry): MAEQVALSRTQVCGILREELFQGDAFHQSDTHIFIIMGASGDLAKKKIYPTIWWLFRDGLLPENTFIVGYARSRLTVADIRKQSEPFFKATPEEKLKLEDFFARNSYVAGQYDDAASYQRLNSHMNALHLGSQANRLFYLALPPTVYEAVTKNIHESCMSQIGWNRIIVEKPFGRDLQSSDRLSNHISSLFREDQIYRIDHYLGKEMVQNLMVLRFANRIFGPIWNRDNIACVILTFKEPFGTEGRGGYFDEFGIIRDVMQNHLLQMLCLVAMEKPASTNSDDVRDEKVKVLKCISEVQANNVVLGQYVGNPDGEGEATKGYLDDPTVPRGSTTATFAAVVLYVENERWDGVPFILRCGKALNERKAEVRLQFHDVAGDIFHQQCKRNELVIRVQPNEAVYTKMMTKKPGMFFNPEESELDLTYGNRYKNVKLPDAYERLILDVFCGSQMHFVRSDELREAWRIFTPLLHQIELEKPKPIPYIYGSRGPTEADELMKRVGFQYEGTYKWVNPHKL

For the compound `Cc1cc(NC(=O)NC(=O)c2ccccc2F)no1`, the IC50 in experiment [1] and in [2] was > 67.5 µM (inactive) in each case.

Consider `Cn1c(-c2ccccc2O)cc2ccccc21`, for which the IC50 in experiment [3] is 13.2 µM (active).

On to `N=C(N)Nc1ncccc1[N+](=O)[O-]`, for which the GI50 in [4] was 32.9 µM (inactive); in experiment [5], 40.2 µM (inactive); in experiment [6], > 100 µM (inactive).

Regarding `COc1cc(OC)c2c(-c3cccc(-c4ccc(NC(C)=O)cc4)c3)cc(=O)oc2c1`, the IC50 in experiment [1] and in [2] was > 67.5 µM (inactive) in each case.

As for `CC(NC(=O)c1cc2cc(Br)ccc2oc1=N)c1ccccc1` (centres undefined), in experiment [7], the CC50 was 24.6 µM (active). For the same compound, the IC50 in [8] was 33.6 µM (active).

With `Cc1cc(C)nc(SC2CC(=O)N(c3ccc(C)c(C)c3)C2=O)n1` (centres undefined), the CC50 in [7] was > 40 µM (active).

Take `Nc1[nH]cnc2ncnc1-2` [ADENINE]: the GI50 in experiment [4] is 79.3 µM (inactive); in experiment [5], 64.9 µM (inactive); in [6] it was 213 µM (inactive).

`CN1CCCC(CC2Oc3ccccc3Sc3ccccc32)C1` (centres undefined): the IC50 in experiment [3] was 15.8 µM (active).

`CCCc1cc2c(=O)c(-c3ccccn3)c(C)oc2cc1O`: in [3], the IC50 was 12.3 µM (active).

Take `CSc1nc(NC2OCC(O)C(O)C2O)c(N)c(=O)[nH]1` (centres undefined): the GI50 in [4], in experiment [5] and in experiment [6] was > 100 µM (inactive) each time.

`Nc1ccn([C@@H]2C=C(CO)[C@@H](O)[C@H]2O)c(=O)n1`: the GI50 was 0.0619 µM (active) in experiment [4], 0.0752 µM (active) in experiment [5] and 0.104 µM (active) in [6].

`Oc1ccc(Br)cc1/C=N/c1ccc(Cl)cc1`: the IC50 in [9] is listed as 43.8 µM (not active).

For `C/C(Cn1nnc([N+](=O)[O-])n1)=N\NC(=O)c1ccccc1`, the IC50 in experiment [10] was > 80 µM (inactive). In addition, the EC50 in experiment [11], in experiment [12] and in [13] was > 120 µM (not active) in each case.

As to `CCn1c(SCC(=O)Nc2ccccc2OC)nnc1-c1cnccn1`, the IC50 in experiment [10] is > 80 µM (inactive).

With `Cc1ccc2c(c1)C=CC(C#N)N2C(=O)c1ccccc1` (centres undefined), the 50% effective concentration (EC50) was 3.69 µM (active) in experiment [14], 25.5 µM (inconclusive) in experiment [15], > 150 µM (not active) in experiment [17] and 1.54 µM (active) in [18]. The IC50 in experiment [16] was > 80 µM (inactive).

On to `Cc1ccc(CSc2nc3ccccc3cc2C=O)cc1`, for which the EC50 was 11.9 µM (active) in experiment [19]; 0.689 µM (active) in experiment [14]; 9.33 µM (active) in experiment [20]; 0.668 µM (active) in [15]; 1.87 µM (active) in experiment [17]; 1.59 µM (active) in experiment [18]. In [21], the EC50 is > 120 µM (not active).

Consider `COc1ccc(NC(=O)c2cnc(SC)nc2)cc1`, for which the half-maximal cytotoxic concentration (CC50) in [7] was 18.1 µM (active). The EC50 in [11] is 14.8 µM (active); in [12] it was > 120 µM (not active); in [13], 16 µM (active). In [8], the IC50 is 18.4 µM (active).

In the case of `CCCCOc1ccc(OCCCCCCCCCC[N+](C)(C)C)cc1`, the GI50 in [4] is 7.05 µM (inactive); in [5], 0.94 µM (active); in experiment [6], 1.61 µM (inactive).

With `C=C(OC1C(C)=C2C(C1OC(=O)CCCCCCC)C(C)(OC(C)=O)CC(OC(=O)CCC)C1(O)C2OC(=O)C1(C)O)/C(C)=C/C` (centres undefined), the GI50 in experiment [4] was 0.0251 µM (active); in experiment [5], 0.0125 µM (active); in [6], 0.0125 µM (active).

In the case of `CCCCCOc1ccc(CSC2=NCCN2)cc1[N+](=O)[O-]`, the 50% cytotoxic concentration (CC50) in experiment [7] is > 40 µM (active). Further, the EC50 in experiment [11] is > 120 µM (not active); in [12], 14.1 µM (active); in [13], 22.2 µM (active); in experiment [22], 0.534 µM (active); in experiment [23], > 60 µM (not active).

For the compound `Cc1nc2ccccc2[nH]c(=O)c1=NNc1ccc([N+](=O)[O-])cc1`, the IC50 in [9] is given as 12.3 µM (not active).

On to `CCOc1ccc(NC(=NCc2ccc3c(c2)OCO3)SC2CC(=O)N(c3ccc(OCC)cc3)C2=O)cc1` (centres undefined), for which, in [9], the IC50 is recorded as > 50 µM (not active).

On to `CN1CCN(C(=O)c2ccc3c(Cl)c4c(nc3c2)CCCC4)CC1`, for which the IC50 in experiment [1] and in [2] was > 67.6 µM (inactive) each time.

For `CC(C)Cn1c(-c2ccc(Br)cc2)cnc1S`, the IC50 in experiment [9] was 12.1 µM (active).

Regarding `Cc1c2c(cc3c1[nH]c1ccccc13)C=NCC2`, the GI50 is 8 µM (inactive) in [4], 6.93 µM (inactive) in experiment [5] and 6.98 µM (inactive) in experiment [6].

Turning to `Cc1ccc(/C=C/C(=O)NCCc2cccc(Cl)c2)o1`, in experiment [10], the IC50 was > 80 µM (inactive).

Regarding `CC(=O)NC1=C[C@@H]([C@H]2COC(C)(C)O2)OC1=O`, the GI50 in experiment [4], in experiment [5] and in [6] was > 100 µM (inactive) each time.

The term IC50 denotes the point on the concentration scale where inhibition reaches its midpoint. One may read the GI50 as the concentration at which growth is held to half of that of the control. For orientation: CC50 means the concentration giving 50% cytotoxicity. One may read the EC50 as the concentration giving half of the maximal effect.
